Assay results reported in US12226424B2, “Target protein degradation compounds, their anti-tumor use, their intermediates and use of intermediates” (ShanghaiTech University, priority 2018, dated 2025).

Legend:
CDK4/6 protein = assay: Western-blot determination of CDK4/6 protein degradation (DC50) in T-47D cells; format: cell-based, human; conditions: 24 h drug treatment, read-out: DC50(nM)/T-47D cell line
SR cells = assay: Half inhibitory concentration (IC50) on ALK-positive SR cell proliferation (CCK-8); format: cell-based; conditions: Homo sapiens; SR cells, 72 h drug treatment, CCK-8; read-out: IC50 (nM)/ SR cell line
Protocol: ALK-positive SR cells (human large cell immunoblastic lymphoma) were purchased from the American Type Culture Collection (ATCC); H3122 cells (human non-small cell lung cancer) were from the Shanghai University of Science and Technology Lin Haifan's research group.
The cells used in this present disclosure were cultured in a 37° C. incubator containing 5% CO2.
SR cells were seeded in 100 μL RPMI1640 complete medium at a density of 10,000 cells/well. 100 μL of the inoculated cells were treated with 0.5 μL diluted PROTAD compound of the present disclosure to be tested at 10 successively decreasing concentrations (starting at the highest concentration of 10 μM; 5-fold serial dilutions) After the cells were treated with the drug for 72 h, cell viability was determined according to the CCK-8 reagent operating instructions. The negative control was DMSO, and the positive control was a commercial inhibitor. After CCK-8 treatment for 2 h, the value of O.D.450 was measured using a microplate reader.

| Structure (SMILES) | DC50 (CDK4/6 protein) [nM] | IC50 (SR cells) [nM] |
| --- | --- | --- |
| CC(=O)c1c(C)c2cnc(Nc3ccc(N4CCN(C(=O)CS(=O)(=O)c5cccc6c5C(=O)N(C5CCC(=O)NC5=O)C6=O)CC4)cn3)nc2n(C2CCCC2)c1=O (stereo not shown) [SIAIS151056, 4-((2-(4-(6-((6-acetyl-8-cyclopentyl-5-methyl-7-oxo-7,8-dihydropyrido[2,3-d]pyrimidin-2-yl)amino)pyridin-3-yl)piperazin-1-yl)-2-oxoethyl)sulfonyl)-2-(2,6-dioxopiperidin-3-yl)isoindoline-1,3-dione] | 100 to 500 |  |
| CC(=O)c1c(C)c2cnc(Nc3ccc(N4CCN(C(=O)C[S+]([O-])c5cccc6c5C(=O)N(C5CCC(=O)NC5=O)C6=O)CC4)cn3)nc2n(C2CCCC2)c1=O (stereo not shown) [SIAIS151057, 4-((2-(4-(6-((6-acetyl-8-cyclopentyl-5-methyl-7-oxo-7,8-dihydropyrido[2,3-d]pyrimidin-2-yl)amino)pyridin-3-yl)piperazin-1-yl)-2-oxoethyl)sulfinyl)-2-(2,6-dioxopiperidin-3-yl)isoindoline-1,3-dione] | 100 to 500 |  |
| CC(=O)c1c(C)c2cnc(Nc3ccc(N4CCN(C(=O)CCSc5cccc6c5C(=O)N(C5CCC(=O)NC5=O)C6=O)CC4)cn3)nc2n(C2CCCC2)c1=O (stereo not shown) [SIAIS184086, 4-((3-(4-(6-((6-acetyl-8-cyclopentyl-5-methyl-7-oxo-7,8-dihydropyrido[2,3-d]pyrimidin-2-yl)amino)pyridin-3-yl)piperazin-1-yl)-3-oxopropyl)thio)-2-(2,6-dioxopiperidin-3-yl)isoindoline-1,3-dione] | > 500 |  |
| CC(=O)c1c(C)c2cnc(Nc3ccc(N4CCN(C(=O)CCCSc5cccc6c5C(=O)N(C5CCC(=O)NC5=O)C6=O)CC4)cn3)nc2n(C2CCCC2)c1=O (stereo not shown) [SIAIS184087, 4-((4-(4-(6-((6-acetyl-8-cyclopentyl-5-methyl-7-oxo-7,8-dihydropyrido [2,3-d]pyrimidin-2-yl)amino)pyridin-3-yl)piperazin-1-yl)-4-oxobutyl)thio)-2-(2,6-dioxo Piperidin-3-yl)isoindoline-1,3-dione] | 1 to 10 |  |
| CCc1cc2c(cc1N1CCC(N3CCN(C(=O)COCCOCCSc4cccc5c4CN(C4CCC(=O)NC4=O)C5=O)CC3)CC1)C(C)(C)c1[nH]c3cc(C#N)ccc3c1C2=O (stereo not shown) [SIAIS249067, 8-(4-(4-(2-(2-(2-((2-(2,6-dioxopiperidin-3-yl)-1-oxoisoindolin-4-yl)thio)ethoxy)ethoxy)acetyl)piperazin-1-yl)piperidin-1-yl)-9-ethyl-6,6-dimethyl-11-oxo-6,11-dihydro-5H-benzo[b]carbazole-3-carbonitrile] |  | 0.38 ± 0.18 |
| CCc1cc2c(cc1N1CCC(N3CCN(C(=O)COCCOCCOCCSc4cccc5c4CN(C4CCC(=O)NC4=O)C5=O)CC3)CC1)C(C)(C)c1[nH]c3cc(C#N)ccc3c1C2=O (stereo not shown) [SIAIS249068, 8-(4-(4-(2-(2-(2-(2-((2-(2,6-dioxopiperidin-3-yl)-1-oxoisoindolin-4-yl)thio)ethoxy)ethoxy)ethoxy)acetyl)piperazin-1-yl)piperidin-1-yl)-9-ethyl-6,6-dimethyl-11-oxo-6,11-dihydro-5H-benzo[b]carbazole-3-carbonitrile] |  | 0.33 ± 0.06 |
| CCc1cc2c(cc1N1CCC(N3CCN(C(=O)COCCOCCOCCOCCSc4cccc5c4CN(C4CCC(=O)NC4=O)C5=O)CC3)CC1)C(C)(C)c1[nH]c3cc(C#N)ccc3c1C2=O (stereo not shown) [SIAIS249069, 8-(4-(4-(14-((2-(2,6-dioxopiperidin-3-yl)-1-oxoisoindolin-4-yl)thio)-3,6,9,12-tetraoxatetradecanoyl)piperazin-1-yl)piperidin-1-yl)-9-ethyl-6,6-dimethyl-11-oxo-6,11-dihydro-5H-benzo[b]carbazole-3-carbonitrile] |  | 0.81 ± 0.28 |
| CCc1cc2c(cc1N1CCC(N3CCN(C(=O)COCCOCCOCCOCCOCCSc4cccc5c4CN(C4CCC(=O)NC4=O)C5=O)CC3)CC1)C(C)(C)c1[nH]c3cc(C#N)ccc3c1C2=O (stereo not shown) [SIAIS249070, 8-(4-(4-(17-((2-(2,6-dioxopiperidin-3-yl)-1-oxoisoindolin-4-yl)thio)-3,6,9,12,15-pentaoxaheptadecanoyl)piperazin-1-yl)piperidin-1-yl)-9-ethyl-6,6-dimethyl-11-oxo-6,11-dihydro-5H-benzo[b]carbazole-3-carbonitrile] |  | 0.43 ± 0.11 |
| CCc1cc2c(cc1N1CCC(N3CCN(C(=O)CSc4cccc5c4CN(C4CCC(=O)NC4=O)C5=O)CC3)CC1)C(C)(C)c1[nH]c3cc(C#N)ccc3c1C2=O (stereo not shown) [SIAIS262096, 8-(4-(4-(2-((2-(2,6-dioxopiperidin-3-yl)-1-oxoisoindolin-4-yl)thio)acetyl)piperazin-1-yl)piperidin-1-yl)-9-ethyl-6,6-dimethyl-11-oxo-6,11-dihydro-5H-benzo[b]carbazole-3-carbonitrile] |  | 0.22 ± 0.11 |
| CCc1cc2c(cc1N1CCC(N3CCN(C(=O)CCSc4cccc5c4CN(C4CCC(=O)NC4=O)C5=O)CC3)CC1)C(C)(C)c1[nH]c3cc(C#N)ccc3c1C2=O (stereo not shown) [SIAIS262097, 8-(4-(4-(3-((2-(2,6-dioxopiperidin-3-yl)-1-oxoisoindolin-4-yl)thio)propanoyl)piperazin-1-yl)piperidin-1-yl)-9-ethyl-6,6-dimethyl-11-oxo-6,11-dihydro-5H-benzo[b]carbazole-3-carbonitrile] |  | 3.89 ± 0.78 |
| CCc1cc2c(cc1N1CCC(N3CCN(C(=O)CCCSc4cccc5c4CN(C4CCC(=O)NC4=O)C5=O)CC3)CC1)C(C)(C)c1[nH]c3cc(C#N)ccc3c1C2=O (stereo not shown) [SIAIS262098, 8-(4-(4-(4-((2-(2,6-dioxopiperidin-3-yl)-1-oxoisoindolin-4-yl)thio)butanoyl)piperazin-1-yl)piperidin-1-yl)-9-ethyl-6,6-dimethyl-11-oxo-6,11-dihydro-5H-benzo[b]carbazole-3-carbonitrile] |  | 0.29 ± 0.21 |
| CCc1cc2c(cc1N1CCC(N3CCN(C(=O)CCCCSc4cccc5c4CN(C4CCC(=O)NC4=O)C5=O)CC3)CC1)C(C)(C)c1[nH]c3cc(C#N)ccc3c1C2=O (stereo not shown) [SIAIS262099, 8-(4-(4-(5-((2-(2,6-dioxopiperidin-3-yl)-1-oxoisoindolin-4-yl)thio)pentanoyl)piperazin-1-yl)piperidin-1-yl)-9-ethyl-6,6-dimethyl-11-oxo-6,11-dihydro-5H-benzo[b]carbazole-3-carbonitrile] |  | 0.93 ± 1.11 |
| CCc1cc2c(cc1N1CCC(N3CCN(C(=O)CCCCCSc4cccc5c4CN(C4CCC(=O)NC4=O)C5=O)CC3)CC1)C(C)(C)c1[nH]c3cc(C#N)ccc3c1C2=O (stereo not shown) [SIAIS262100, 8-(4-(4-(6-((2-(2,6-dioxopiperidin-3-yl)-1-oxoisoindolin-4-yl)thio)hexanoyl)piperazin-1-yl)piperidin-1-yl)-9-ethyl-6,6-dimethyl-11-oxo-6,11-dihydro-5H-benzo[b]carbazole-3-carbonitrile] |  | 0.52 ± 0.48 |
| CCc1cc2c(cc1N1CCC(N3CCN(C(=O)CCCCCCSc4cccc5c4CN(C4CCC(=O)NC4=O)C5=O)CC3)CC1)C(C)(C)c1[nH]c3cc(C#N)ccc3c1C2=O (stereo not shown) [SIAIS262101, 8-(4-(4-(7-((2-(2,6-dioxopiperidin-3-yl)-1-oxoisoindolin-4-yl)thio)heptanoyl)piperazin-1-yl)piperidin-1-yl)-9-ethyl-6,6-dimethyl-11-oxo-6,11-dihydro-5H-benzo[b]carbazole-3-carbonitrile] |  | 2.94 ± 3.7 |
| CCc1cc2c(cc1N1CCC(N3CCN(CCSc4cccc5c4C(=O)N(C4CCC(=O)NC4=O)C5=O)CC3)CC1)C(C)(C)c1[nH]c3cc(C#N)ccc3c1C2=O (stereo not shown) [SIAIS262158, 8-(4-(4-(2-((2-(2,6-dioxopiperidin-3-yl)-1,3-dioxoisoindolin-4-yl)thio)ethyl)piperazin-1-yl)piperidin-1-yl)-9-ethyl-6,6-dimethyl-11-oxo-6,11-dihydro-5H-benzo[b]carbazole-3-carbonitrile] |  | 2.9 |
| CCc1cc2c(cc1N1CCC(N3CCN(CCCCCCSc4cccc5c4CN(C4CCC(=O)NC4=O)C5=O)CC3)CC1)C(C)(C)c1[nH]c3cc(C#N)ccc3c1C2=O (stereo not shown) [SIAIS262159, 8-(4-(4-(6-((2-(2,6-dioxopiperidin-3-yl)-1-oxoisoindolin-4-yl)thio)hexyl)piperazin-1-yl)piperidin-1-yl)-9-ethyl-6,6-dimethyl-11-oxo-6,11-dihydro-5H-benzo[b]carbazole-3-carbonitrile] |  | 1 |
| CCc1cc2c(cc1N1CCC(NC(=O)CSc3cccc4c3CN(C3CCC(=O)NC3=O)C4=O)CC1)C(C)(C)c1[nH]c3cc(C#N)ccc3c1C2=O (stereo not shown) [SIAIS262161, N-(1-(3-cyano-9-ethyl-6,6-dimethyl-11-oxo-6,11-dihydro-5H-benzo[b]carbazol-8-yl)piperidin-4-yl)-2-((2-(2,6-dioxopiperidin-3-yl)-1-oxoisoindolin-4-yl)thio)acetamide] |  | 1.86 |
| CCc1cc2c(cc1N1CCC(NC(=O)CCCCCSc3cccc4c3CN(C3CCC(=O)NC3=O)C4=O)CC1)C(C)(C)c1[nH]c3cc(C#N)ccc3c1C2=O (stereo not shown) [SIAIS262162, N-(1-(3-cyano-9-ethyl-6,6-dimethyl-11-oxo-6,11-dihydro-5H-benzo[b]carbazol-8-yl)piperidin-4-yl)-6-((2-(2,6-dioxopiperidin-3-yl)-1-oxoisoindolin-4-yl)thio)hexanamide] |  | 11.3 |
| CCc1cc2c(cc1N1CCC(NC(=O)COCCSc3cccc4c3CN(C3CCC(=O)NC3=O)C4=O)CC1)C(C)(C)c1[nH]c3cc(C#N)ccc3c1C2=O (stereo not shown) [SIAIS262163, N-(1-(3-cyano-9-ethyl-6,6-dimethyl-11-oxo-6,11-dihydro-5H-benzo[b]carbazol-8-yl)piperidin-4-yl)-2-(2-((2-(2,6-dioxopiperidin-3-yl)-1-oxoisoindolin-4-yl)thio)ethoxy)acetamide] |  | 1.6 |
